# Measurements reported in PMC13065080, “Discovery of a potent anti-Zika virus benzamide series targeting the viral protein NS4B” (PLOS Pathogens, 2026).
# Read-outs that look alike come from different tables or passages of the source.
# Columns and labels:
# ZIKV-RLuc NS4B V241L = assay type: cell-based, Zika virus
# ZIKV Ib H30656 = assay: microbe, parasite or virus in culture; assay type: cell-based; conditions: Zika virus; CPE-protection
# ZIKV DAK-41525-MA = assay: CPE-protection assay, ZIKV DAK-41525-MA; assay type: cell-based, Zika virus; conditions: Zika virus
# ZIKV-RLuc NS4B V248G = assay type: cell-based, Zika virus
# [1] = tested on: cleavage between NS4B and NS5; assay: NS4B-NS5 polyprotein processing; assay type: cell-based, Zika virus; conditions: HEK-293T
# JEV SA-14 = assay: CPE-protection assay, JEV; assay type: cell-based, Japanese encephalitis virus; conditions: Japanese encephalitis virus
# ZIKV PLCal [2] = assay: CPE-based anti-ZIKV concentration-response assay (96-well); assay type: cell-based, Zika virus; conditions: Zika virus, 72 h; Vero 76, MOI 0.05, 3-day incubation, CellTiter-Glo; read-out: EC50-CPE ZIKV-PLCal
# ZIKV MR766 = assay: microbe, parasite or virus in culture; assay type: cell-based; conditions: Zika virus; CPE-protection
# ZIKV PLCal [3] = assay: Virus yield (titer) reduction assay in Vero 76 cells; assay type: cell-based, Zika virus; conditions: 5 µM, Vero 76, 0.05 m.o.i., two days
# ZIKV = assay: Combination treatment and synergy scoring, CPE-based anti-ZIKV assay; assay type: cell-based; conditions: Zika virus; single agent, Fig 6A; read-out: EC50 as a single agent in the dose-response anti-ZIKV assay
# ZIKV-RLuc NS4B A245T = assay type: cell-based, Zika virus
# YFV 17D = assay: microbe, parasite or virus in culture; assay type: cell-based; conditions: Yellow fever virus; CPE-protection
# ZIKV-RLuc = assay: microbe, parasite or virus in culture; assay type: cell-based, Zika virus; conditions: wild type ZIKV-RLuc, Vero 76, MOI 0.1, three days, read-out: EC50 ZIKV-RLuc
# IFN-α/β induction = assay: Interferon response measurement in ZIKV-infected Huh 7.5.1 cells; assay type: cell-based; conditions: Huh 7.5.1, ZIKV MOI 3, 24 h.p.i.
# Experimental: Huh 7.5.1. cells were infected with ZIKV with/without test compound treatment, and the supernatants were harvested at 24 h.p.i. and tested for interferon- α/β (IFN- α/β) following the manufacturer’s protocol. HEK-Blue IFN-α/β cells (5000 cells/well) were incubated in 96-well plates with 20 µL of test samples for overnight. The following day, 20 µL of the cell supernatant from the HEK-Blue IFN-α/β cells were further incubated with 180 µL of pre-warmed Quanti-blue SEAP reagent (Invivogen) for 2 hours and the O.D. A620 was measured using a Cytation 1 (Agilent). As a positive and negative control, recombinant human IFN-α2b (InvivoGen, 30 pg/ml) and conditioned media from mock-infected Huh 7.5.1. were used.
# ZIKV viral E protein = assay: Viral E protein expression by fluorescence microscopy (4G2 antibody); assay type: cell-based, Zika virus; conditions: ZIKV-infected Vero76, 2 days post infection
# NS3-NS4B interaction = NS3-NS4B interaction (Zika virus, UniProt A0A142I5B9); assay type: cell-based
# in vitro = conditions: African green monkey, CC50 Vero76
# ZIKV-RLuc NS4B mutants = assay type: cell-based, Zika virus
# CHIKV = assay: microbe, parasite or virus in culture; assay type: cell-based; conditions: Chikungunya virus, Vero 76, read-out: EC50-CPE CHIKV
# ZIKV PLCal [4] = assay: Virus yield (titer) reduction assay in Huh 7.5.1 cells; assay type: cell-based, Zika virus; conditions: 1 µM
# ZIKV FLR = assay: microbe, parasite or virus in culture; assay type: cell-based; conditions: Zika virus; CPE-protection
# WNV NY-99 = assay: CPE-protection assay, WNV; assay type: cell-based, West Nile virus; conditions: West Nile virus
# Vero76 = conditions: African green monkey
# ZIKV PRVABC59 = assay: microbe, parasite or virus in culture; assay type: cell-based; conditions: Zika virus; CPE-protection
# DENV Type 4 H241 = assay: microbe, parasite or virus in culture; assay type: cell-based; conditions: Dengue virus, read-out: EC50 DENV Type 4 H241
structure (smiles),measurement,setting,value
CC(C)(C)c1ccc(C(=O)NC2CCCC2)cc1 [MWAC-3475],EC50,ZIKV-RLuc NS4B V241L,21.4 µM
same,"Fold-increase / fold-change of EC50, NS4B V241L vs wild type",ZIKV-RLuc NS4B V241L,55.24
same,EC50,ZIKV Ib H30656,1.01 ± 0.21 µM
same,EC50,ZIKV DAK-41525-MA,1.54 ± 0.27 µM
same,EC50,ZIKV-RLuc NS4B V248G,5.12 µM
same,"Fold-increase / fold-change of EC50, NS4B V248G vs wild type",ZIKV-RLuc NS4B V248G,13.20
same,effect on cleavage between NS4B and NS5,[1],no such effect was detected
same,EC50,JEV SA-14,> 50 µM
same,EC50,ZIKV PLCal [2],0.63 ± 0.65 µM
same,EC50,ZIKV MR766,5.93 ± 1.26 µM
same,reduction in progeny virus titers,ZIKV PLCal [3],> 1000 fold
same,EC50,ZIKV,0.616 µM
same,EC50,ZIKV-RLuc NS4B A245T,2.29 µM
same,"Fold-increase / fold-change of EC50, NS4B A245T vs wild type",ZIKV-RLuc NS4B A245T,5.91
same,EC50,YFV 17D,> 50 µM
same,EC50,"ZIKV-RLuc; Zika virus, Vero 76, 72 h",0.39 µM
same,EC50,ZIKV-RLuc,0.34 ± 0.28 µM
same,induction of interferon in the infected cells,IFN-α/β induction,did not inhibit either of these steps
same,intensity and abundance of viral E protein (4G2 antibody),ZIKV viral E protein,decreased in a concentration-dependent manner
same,disruption of NS3-NS4B interaction,NS3-NS4B interaction,did not inhibit either of these steps
same,CC50,in vitro,28 µM
same,fold decrease in potency by NS4B mutations,ZIKV-RLuc NS4B mutants,6- to 55 fold
same,EC50,CHIKV,> 50 µM
same,VYR: Virus Yield reduction (Log 10),ZIKV PLCal [4],-0.36 ± 0.07 Log 10
same,EC50,ZIKV FLR,1.13 ± 0.11 µM
same,EC50,WNV NY-99,> 50 µM
same,CC50,Vero76,28.1 ± 6.5 µM
same,EC50,ZIKV PRVABC59,0.91 ± 0.2 µM
same,EC50,DENV Type 4 H241,> 50 µM
